Read-outs that look alike come from different tables or passages of the source.
Tests used:
HIF-1α–NanoLuc = HIF-1α–NanoLuc reporter gene assay (qHTS primary and confirmatory screens); assay type: cell-based, human; details: Homo sapiens
hypoxia signaling genes = assay: Real-time qPCR of human hypoxia signaling gene panel in ME-180 cells; details: 1% O2, 18 h, at IC50 concentration of HIF-1α–NanoLuc assay
HRE–bla ME-180 cells = assay: Viability (BLA): CellTiter-Glo counter screen in HRE–bla cells; assay type: cell-based, human; details: for Viability (BLA) confirmatory IC50: Table S7, 1% O2, 18 h
Method: (§1) Cell culture of HRE–bla ME-180 cells (Cat. No. K1644, Life Technologies) and HRE–bla assay were conducted according to a reported protocol [6]. […] The fluorescence signals (460/25 nm and 530/20 nm) of CCF4 and luminescence signals of CellTiter-Glo were acquired on an Envision and a ViewLux plate readers (Perkin Elmer), respectively.

HCT116 cells = assay: Cancer cell proliferation assay, HCT116; assay type: cell-based, human; details: Table 1, 72 h; for IC50: Homo sapiens, HCT-116, read-out: 72-hr Viability HCT116 IC50
Method: (§2) HCT116 and ME-180 cells (ATCC) were cultured according to manufacturer's instructions. […] Cell proliferation was quantified as relative luminescence unit (RLU) values using CellTiter-Glo viability assay reagent on a ViewLux plate reader (Perkin Elmer).

[1] = tested on: hypoxia response element-beta-lactamase (HRE–bla); assay: HRE-bla reporter gene assay in ME-180 cells; assay type: cell-based, human; details: for Emax / IC50: Homo sapiens; for Emax: ME-180; for IC50: read-out: HRE-bla IC50
Method: as §1

[2] = tested on: co-cultures of human aortic endothelial cells and human mesenchymal stem cells; assay: In vitro angiogenesis co-culture assay (tube formation); assay type: cell-based; details: three-day exposure; for IC50 / Emax: Homo sapiens, 72 h, Table 1; for IC50: tube formation; for Emax: percentage of inhibition compared to DMSO controls, read-out: Angiogenesis Efficacy (converted); for Angiogenesis inhibition, result in words: co-culture assay
Method: Cells were seeded in a 96-well clear bottom plate (Corning) for five hours and exposed to test compounds for three days at 37°C, 5% CO2.

ME-180 cells = assay: Cancer cell proliferation assay, ME-180; assay type: cell-based; details: Homo sapiens, ME-180; Table 1; 72 h; read-out: 72-hr Viability ME-180 IC50
Method: as §2

[3] = tested on: HIF-1α–NanoLuc HCT116 cells; assay: Viability (Luc): CellTiter-Glo counter screen in HIF-1α–NanoLuc cells; assay type: cell-based, human; details: Table S7, 1% O2, 18 h
[4] = HCT-116, Table 1, HCT116 reporter cells, hypoxia 1% O2, 18 h, confirmatory, read-out: HIF-1α-NanoLuc IC50
[5] = Table 1, percentage of inhibition compared to DMSO controls, read-out: HIF-1α-NanoLuc Efficacy (converted)
[6] = Table S2, validation, read-out: Pathway inhibitors (validation) HIF-1α–NanoLuc Activity Efficacy
[7] = Table S7, confirmatory screen, read-out: HIF-1α–NanoLuc confirmatory Efficacy
[8] = Table 1, percentage of inhibition compared to DMSO controls, read-out: HRE-bla Efficacy (converted)
[9] = Table S7, confirmatory screen, read-out: HRE–bla confirmatory Efficacy
[10] = Table 1, ME-180 cells, 1% O2, 18 h

Q: `CC(=O)Nc1cccc(-n2c(=O)n(C3CC3)c(=O)c3c(Nc4ccc(I)cc4F)n(C)c(=O)c(C)c32)c1` [Trametinib] was tested. Which IC50 (HIF-1α–NanoLuc; [4]) did it give?
A: 2980 ± 4640 nM

Q: What about the Emax (HIF-1α–NanoLuc; [5]) of the same compound?
A: 69%

Q: And the Emax (HIF-1α–NanoLuc; [6])?
A: 69 ± 5%

Q: And the Emax (HIF-1α–NanoLuc; [7])?
A: 69 ± 5%

Q: And the “Effect on expression of hypoxia-induced genes, in words” value (hypoxia signaling genes)?
A: decreased expression levels of HIF1A and many hypoxia responsive genes

Q: And the “Viability (BLA) confirmatory IC50” value (HRE–bla ME-180 cells)?
A: Inactive

Q: And the IC50 (HCT116 cells)?
A: 640 ± 110 nM

Q: What about the Emax [1, 8] of the same compound?
A: 53%

Q: What about the Emax [1, 9] of the same compound?
A: 53 ± 9%

Q: What about the IC50 [1, 10] of the same compound?
A: 20500 ± 8110 nM

Q: And the IC50 [2]?
A: 0.05 ± 0.05 nM

Q: And the Emax [2]?
A: 89%

Q: What about the “Angiogenesis inhibition, result in words” value [2] of the same compound?
A: picomolar IC50 value

Q: What about the IC50 (ME-180 cells) of the same compound?
A: 60 ± 20 nM

Q: And the “Viability (Luc) confirmatory IC50” value [3]?
A: Inactive

Q: What does the source list for `Oc1cccc(-c2nc(N3CCOCC3)c3oc4ncccc4c3n2)c1` [PI-103]?
A: IC50 (HIF-1α–NanoLuc; [4]): 920 ± 60 nM; Emax (HIF-1α–NanoLuc; [5]): 57%; Emax (HIF-1α–NanoLuc; [6]): 80 ± 3%; IC50 (HIF-1α–NanoLuc; Table S2, validation, read-out: Pathway inhibitors (validation) HIF-1α–NanoLuc Activity IC50): 2770 ± 40 nM; Emax (HIF-1α–NanoLuc; [7]): 57 ± 10%; Effect on expression of hypoxia-induced genes, in words (hypoxia signaling genes): decreased the expression levels of all hypoxia-induced genes tested; IC50 (HRE–bla ME-180 cells; Homo sapiens, ME-180, Table S7, confirmatory screen, 1% O2, 18 h): 770 ± 250 nM; 72-hr Viability HCT116 IC50 (HCT116 cells): Inactive; Emax [1, 8]: 62%; Emax [1, 9]: 62 ± 3%; IC50 [1, 10]: 150 ± 20 nM; IC50 [2]: 320 ± 90 nM; Emax [2]: 80%; Angiogenesis inhibition, result in words [2]: submicromolar concentrations; IC50 (ME-180 cells): 370 ± 20 nM; Viability (Luc) confirmatory IC50 [3]: Inactive

Q: `Cn1cnc2c(F)c(Nc3ccc(Br)cc3Cl)c(C(=O)NOCCO)cc21` [Selumetinib] was tested. Which IC50 (HIF-1α–NanoLuc; [4]) did it give?
A: 1490 ± 1300 nM

Q: And the Emax (HIF-1α–NanoLuc; [5])?
A: 48%

Q: And the Emax (HIF-1α–NanoLuc; Table S2, primary screen, read-out: Pathway inhibitors (primary screen) HIF-1α–NanoLuc Activity Efficacy)?
A: 62%

Q: What about the IC50 (HIF-1α–NanoLuc; Table S2, primary screen, read-out: Pathway inhibitors (primary screen) HIF-1α–NanoLuc Activity IC50) of the same compound?
A: 40 nM

Q: And the Emax (HIF-1α–NanoLuc; [6])?
A: 48 ± 10%

Q: And the Emax (HIF-1α–NanoLuc; [7])?
A: 48 ± 10%

Q: What about the Emax (HIF-1α–NanoLuc; Table S7, primary screen, read-out: HIF-1α–NanoLuc primary Efficacy) of the same compound?
A: 62%

Q: And the “Viability (BLA) confirmatory IC50” value (HRE–bla ME-180 cells)?
A: Inactive

Q: And the IC50 (HCT116 cells)?
A: 22800 ± 3890 nM

Q: And the “HRE-bla IC50” value [1, 10]?
A: Inactive

Q: What about the IC50 [2] of the same compound?
A: 10 nM

Q: And the Emax [2]?
A: 92%

Q: What about the IC50 (ME-180 cells) of the same compound?
A: 270 ± 60 nM

Q: And the “Viability (Luc) confirmatory IC50” value [3]?
A: Inactive
